Mutagenic call data for 8 molecules are collected here from PubChem BioAssay AID1259407 (Chemical Carcinogenesis Research Information System (CCRIS), 2018).

The test system of the data set is CCRIS mutagenicity, Ames/micronucleus/aberration tests. Briefly: CCRIS mutagenicity studies.
[1] abbreviates: Test System: AMES SALMONELLA TYPHIMURIUM, Strain/Indicator: TA100, Metabolic Activation: NONE, Method: STANDARD PLATE.
[2] abbreviates: Test System: CHINESE HAMSTER OVARY, Strain/Indicator: CHO-K1-BH4 (HGPRT)/6-THIOGUANINE, Metabolic Activation: NONE.
The mark [3] stands for this setting: Test System: AMES SALMONELLA TYPHIMURIUM, Strain/Indicator: TA98, Metabolic Activation: NONE, Method: PREINCUBATION
Setting [4] is: Test System: AMES SALMONELLA TYPHIMURIUM, Strain/Indicator: TA100, Metabolic Activation: NONE, Method: PREINCUBATION
[5] abbreviates: Test System: AMES SALMONELLA TYPHIMURIUM, Strain/Indicator: TA1535, Metabolic Activation: NONE, Method: PREINCUBATION
Setting [6] is: Test System: AMES SALMONELLA TYPHIMURIUM, Strain/Indicator: TA1537, Metabolic Activation: NONE, Method: PREINCUBATION

Active and inactive are the calls of the source. No rule for the calls is given here.

On to `COCC(=O)O`, for which the mutagenic call is “inactive; negative” (Test System: AMES SALMONELLA TYPHIMURIUM, Strain/Indicator: TA97A, Metabolic Activation: NONE, Method: STANDARD PLATE); “inactive; negative” (Test System: AMES SALMONELLA TYPHIMURIUM, Strain/Indicator: TA97A, Metabolic Activation: RAT, LIVER, S-9, AROCLOR 1254, Method: STANDARD PLATE); “inactive; negative” (Test System: AMES SALMONELLA TYPHIMURIUM, Strain/Indicator: TA98, Metabolic Activation: NONE, Method: STANDARD PLATE); “inactive; negative” (Test System: AMES SALMONELLA TYPHIMURIUM, Strain/Indicator: TA98, Metabolic Activation: RAT, LIVER, S-9, AROCLOR 1254, Method: STANDARD PLATE); “inactive; negative” under setting [1]; “inactive; negative” (Test System: AMES SALMONELLA TYPHIMURIUM, Strain/Indicator: TA100, Metabolic Activation: RAT, LIVER, S-9, AROCLOR 1254, Method: STANDARD PLATE). The mutagenic call was “inactive; negative” (Test System: AMES SALMONELLA TYPHIMURIUM, Strain/Indicator: TA102, Metabolic Activation: NONE, Method: STANDARD PLATE); “inactive; negative” (Test System: AMES SALMONELLA TYPHIMURIUM, Strain/Indicator: TA102, Metabolic Activation: RAT, LIVER, S-9, AROCLOR 1254, Method: STANDARD PLATE); “inactive; negative” (Test System: CHINESE HAMSTER OVARY, Strain/Indicator: CHO AS52 (GPT)/6-THIOGUANINE, Metabolic Activation: NONE); “inactive; negative” under setting [2]; “inactive; negative” (Test System: CHINESE HAMSTER OVARY, Strain/Indicator: CHO-K1-BH4 (HGPRT)/6-THIOGUANINE, Metabolic Activation: RAT, LIVER, S-9, AROCLOR 1254).

Take `CCCCCCCCCC(=O)O`: the mutagenic call reads like this: (Test System: AMES SALMONELLA TYPHIMURIUM, Strain/Indicator: TA97, Metabolic Activation: HAMSTER, LIVER, S-9, AROCLOR 1254 (10 OR 30%), Method: PREINCUBATION) “inactive; negative”; (Test System: AMES SALMONELLA TYPHIMURIUM, Strain/Indicator: TA97, Metabolic Activation: NONE, Method: PREINCUBATION) “inactive; negative”; (Test System: AMES SALMONELLA TYPHIMURIUM, Strain/Indicator: TA97, Metabolic Activation: RAT, LIVER, S-9, AROCLOR 1254 (10 OR 30%), Method: PREINCUBATION) “inactive; negative”; (Test System: AMES SALMONELLA TYPHIMURIUM, Strain/Indicator: TA98, Metabolic Activation: HAMSTER, LIVER, S-9, AROCLOR 1254 (10 OR 30%), Method: PREINCUBATION) “inactive; negative”; under setting [3], “inactive; negative”; (Test System: AMES SALMONELLA TYPHIMURIUM, Strain/Indicator: TA98, Metabolic Activation: RAT, LIVER, S-9, AROCLOR 1254 (10 OR 30%), Method: PREINCUBATION) “inactive; negative”. The mutagenic call was “inactive; negative” (Test System: AMES SALMONELLA TYPHIMURIUM, Strain/Indicator: TA100, Metabolic Activation: HAMSTER, LIVER, S-9, AROCLOR 1254 (10 OR 30%), Method: PREINCUBATION); “inactive; negative” under setting [4]; “inactive; negative” (Test System: AMES SALMONELLA TYPHIMURIUM, Strain/Indicator: TA100, Metabolic Activation: RAT, LIVER, S-9, AROCLOR 1254 (10 OR 30%), Method: PREINCUBATION); “inactive; negative” (Test System: AMES SALMONELLA TYPHIMURIUM, Strain/Indicator: TA1535, Metabolic Activation: HAMSTER, LIVER, S-9, AROCLOR 1254 (10 OR 30%), Method: PREINCUBATION); “inactive; negative” under setting [5]; “inactive; negative” (Test System: AMES SALMONELLA TYPHIMURIUM, Strain/Indicator: TA1535, Metabolic Activation: RAT, LIVER, S-9, AROCLOR 1254 (10 OR 30%), Method: PREINCUBATION). Moreover, the mutagenic call is “inactive; negative” (Test System: AMES SALMONELLA TYPHIMURIUM, Strain/Indicator: TA1537, Metabolic Activation: HAMSTER, LIVER, S-9, AROCLOR 1254 (10 OR 30%), Method: PREINCUBATION); “inactive; negative” under setting [6]; “inactive; negative” (Test System: AMES SALMONELLA TYPHIMURIUM, Strain/Indicator: TA1537, Metabolic Activation: RAT, LIVER, S-9, AROCLOR 1254 (10 OR 30%), Method: PREINCUBATION).

Regarding `Cc1cc(Cc2ccc(N)c(C)c2)ccc1N`, the mutagenic call was “inactive; negative” under setting [3]; “inactive; negative” (Test System: AMES SALMONELLA TYPHIMURIUM, Strain/Indicator: TA98, Metabolic Activation: RAT, LIVER, S-9, PCB, Method: PREINCUBATION); “inactive; negative” under setting [4]; “inactive; negative” (Test System: AMES SALMONELLA TYPHIMURIUM, Strain/Indicator: TA100, Metabolic Activation: RAT, LIVER, S-9, PCB, Method: PREINCUBATION).

For the molecule `CN(N=O)C(=O)N[C@@H]1O[C@H](CO)[C@H](O)[C@H](O)[C@H]1O`, where the note is “Test System: CHINESE HAMSTER V-79, Strain/Indicator: V-79/8-AZAGUANINE, Metabolic Activation: NONE, Method: STANDARD PLATE”, the mutagenic call was “active; positive”.

On to `O=c1c(O)c2c(c3c1ccc1[nH]cccc13)O2`, for which, under setting [1], the mutagenic call was “inactive; negative”.

Turning to `COC12OOC1(C)Oc1ccccc12` (centres undefined), the mutagenic call under setting [4] is “active; positive”.

With `CCOP(=S)(OCC)Oc1nc(Cl)c(Cl)cc1Cl`, the mutagenic call runs as follows: (End Point: In vitro chromosomal aberrations, Test System: Human lymphocytes, Metabolic Activation: None) “active; positive (structural changes and ploidy)”; under setting [3], “inactive; negative”; (Test System: AMES SALMONELLA TYPHIMURIUM, Strain/Indicator: TA98, Metabolic Activation: RAT, LIVER, S-9, AROCLOR 1254, Method: PREINCUBATION) “inactive; negative”; under setting [4], “inactive; negative”; (Test System: AMES SALMONELLA TYPHIMURIUM, Strain/Indicator: TA100, Metabolic Activation: RAT, LIVER, S-9, AROCLOR 1254, Method: PREINCUBATION) “inactive; negative”; under setting [5], “inactive; negative”. The mutagenic call by setting is: (Test System: AMES SALMONELLA TYPHIMURIUM, Strain/Indicator: TA1535, Metabolic Activation: RAT, LIVER, S-9, AROCLOR 1254, Method: PREINCUBATION) “inactive; negative”; under setting [6], “inactive; negative”; (Test System: AMES SALMONELLA TYPHIMURIUM, Strain/Indicator: TA1537, Metabolic Activation: RAT, LIVER, S-9, AROCLOR 1254, Method: PREINCUBATION) “inactive; negative”; (Test System: AMES SALMONELLA TYPHIMURIUM, Strain/Indicator: TA1538, Metabolic Activation: NONE, Method: PREINCUBATION) “inactive; negative”; (Test System: AMES SALMONELLA TYPHIMURIUM, Strain/Indicator: TA1538, Metabolic Activation: RAT, LIVER, S-9, AROCLOR 1254, Method: PREINCUBATION) “inactive; negative”; under setting [2], “inactive; negative”. In addition, the mutagenic call (Test System: CHINESE HAMSTER OVARY, Strain/Indicator: CHO-K1-BH4 (HGPRT)/6-THIOGUANINE, Metabolic Activation: RAT, LIVER , S-9, AROCLOR 1254) is “inactive; negative” and the mutagenic call (Test System: UDS RAT PRIMARY HEPATOCYTES, Strain/Indicator: THY INCORP, Metabolic Activation: NONE, Method: AUTORADIOGRAPHY) is “inactive; negative”.

On to `CN1CC[C@H](c2c(O)cc(O)c3c(=O)cc(-c4ccccc4Cl)oc23)[C@H](O)C1`, for which the mutagenic call (Test System: Mouse lymphoma, Strain/Indicator: L5178Y (tk+/tk-), Metabolic Activation: None, Method: Suspension/plate) is “inactive; negative” and the mutagenic call (Test System: Mouse lymphoma, Strain/Indicator: L5178Y (tk+/tk-), Metabolic Activation: Rat, Liver, S-9, Aroclor 1254, Method: Suspension/plate) is “active; inconclusive (previous evaluation positive)”.
